Several values for one entry are separate records, joined by “and”; a condition that tells them apart may be missing. Equal values may be shown once. Read-outs that look alike come from different tables or passages of the source. Blank lines part the entries; values can stand above or below the molecule they belong to. Square brackets hold non-standard residues; d marks the D form. Ends that are not written are not given here. Peptide text beside a SMILES is read from it. * marks the point of attachment. Benzoyl(4-octyl) = CCCCCCCCc1ccc(C(=O)*)cc1; pT = C[C@@H](OP(=O)(O)O)[C@H](N)C(=O)O; X2 = O=C(c1ccc(OCc2ccc(F)cc2)cc1)*; Benzoyl(4-OH) = O=C(c1ccc(O)cc1)*
Tests used:
PLK1 PBD = PLK1 PBD (Homo sapiens, UniProt P53350); assay: Fluorescence polarization competitive binding assay, PLK1 PBD; settings: for Selectivity Index: (IC50 PLK3 PBD/IC50 PLK1 PBD)×5, PLK1 over PLK3
Sequence of PLK1 PBD (P53350 367-603 limits assumed): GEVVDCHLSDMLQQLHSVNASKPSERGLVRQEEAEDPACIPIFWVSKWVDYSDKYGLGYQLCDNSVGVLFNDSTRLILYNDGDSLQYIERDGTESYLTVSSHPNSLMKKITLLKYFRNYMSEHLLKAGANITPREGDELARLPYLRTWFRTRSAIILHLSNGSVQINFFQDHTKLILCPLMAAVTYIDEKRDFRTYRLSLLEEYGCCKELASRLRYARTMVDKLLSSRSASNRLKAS
Description: (§1) According to the assay, binding of a fluorescent tracer peptide to a protein increased polarization of the emitted fluorescence. […] The ability of test molecules to bind to the PBD was quantitated by a reduction in mP values that occurred as the tracer was displaced from the PBD, and plotted to calculate as an IC50 value.
(§2) The affinities of the peptides for PLK1 and PLK3 were measured by plotting the loss of polarization against increasing concentration of competitor peptide through use of an optimized assay and selectivity determination.

PLK3 PBD = biological target: T1, PLK3 PBD (Homo sapiens, UniProt Q9H4B4); assay: Fluorescence polarization competitive binding assay, PLK3 PBD; settings: for PLK3 PBD binding, in words: FP assay
T1 construct: A similar assay format was developed for the PLK3 PBD
T1 sequence (Q9H4B4 335-646 limits assumed): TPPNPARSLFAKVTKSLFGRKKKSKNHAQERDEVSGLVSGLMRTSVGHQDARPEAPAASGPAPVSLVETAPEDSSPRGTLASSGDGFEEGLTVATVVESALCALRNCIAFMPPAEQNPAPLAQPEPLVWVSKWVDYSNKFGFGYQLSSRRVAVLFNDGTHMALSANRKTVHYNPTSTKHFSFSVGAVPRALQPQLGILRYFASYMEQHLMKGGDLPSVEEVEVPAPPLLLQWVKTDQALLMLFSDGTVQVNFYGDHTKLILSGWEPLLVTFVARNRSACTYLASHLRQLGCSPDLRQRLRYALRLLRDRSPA
Description: The binding of fluorescein-labelled tracer peptides used for both assays was determined to see if there was a difference in affinity for their respective PBD. A titration curve for each tracer/PLK PBD complex was generated to determine Kd values for each and therefore compare the relative binding affinities.
as §2

[1] = biological target: polo-box domain (PBD) of polo-like kinase 1 (PLK1) (UniProt P53350); assay: from FP IC50s, (IC50 PLK3 PBD/IC50 PLK1 PBD)x5; PLK1 PBD against PLK3 PBD
Sequence of polo-box domain (PBD) of polo-like kinase 1 (PLK1) (UniProt P53350) (P53350 367-603 limits assumed): as the sequence (P53350 367-603 limits assumed) above

[2] = biological target: polo-box domain (PBD) of polo-like kinase 1 (PLK1) (UniProt P53350); assay: fluorescence polarization competition on PLK1 PBD
[3] = biological target: polo-box domain (PBD) of polo-like kinase 1 (PLK1) (UniProt P53350); assay: fluorescence polarization competition, displacement of tracer peptide from PLK1 PBD
[4] = biological target: polo-box domain (PBD) of polo-like kinase 1 (PLK1) (UniProt P53350); assay: from FP IC50s; PLK1 PBD against PLK3 PBD
[5] = biological target: T2, polo-box domain (PBD) of polo-like kinase 1 (PLK1) (UniProt P53350 367-603, limits assumed); assay: fluorescence polarization competition, displacement of tracer peptide from PLK1 PBD
T2 construct: domain: polo-box domain (PBD); the background speaks of the four known human PLKs and the residue numbers (L491) fit human PLK1; also called PLK1 PBD; PBD of PLK1
T2 sequence (P53350 367-603 limits assumed): as the sequence (P53350 367-603 limits assumed) above
Excerpt: as §1, with “IC₅₀” for “IC50”

[6] = competition with fluorescent tracer peptide, read-out: PLK1 PBD FP IC50
[7] = competition with fluorescent tracer peptide, read-out: PLK3 PBD FP IC50
[8] = PLK3 PBD FP IC50, competition with fluorescent tracer peptide

Selectivity Index [1]: 1930
Molecule: GPLATS[pT]PKNG (SEQ ID NO: 7)

fold reduction in binding against SEQ ID NO: 4 [2]: 7 fold
Selectivity Index [1]: > 6500
IC50 [3]: 0.46 µM
Molecule: Ac-PLHS[pT]A (SEQ ID NO: 6)

Selectivity Index [4]: 2070
IC50 [3]: 0.36 µM
Molecule: Compound No. 13, 4-octyl S[pT]PNGL (SEQ ID NO: 11) (peptide)

Selectivity Index [4]: > 1200
fold potency increase against Compound #9 [2]: 2 fold
IC50 [3]: 2.5 µM
Molecule: 4-butyl benzamide FLIP, 4-butyl S[pT]PNGL (SEQ ID NO: 11) (peptide)

fold weakened affinity against SEQ ID NO: 8 [2]: 2 fold
Selectivity Index [1]: 20900
Molecule: Ac-PLHS[pT]PKNG (SEQ ID NO: 9)

Selectivity Index [1]: 21100
Molecule: Ac-PLHS[pT]AI (SEQ ID NO: 4)

Selectivity Index [4]: > 2830
IC50 [3]: 1 µM
Molecule: Compound No. 12, 4-hexyl S[pT]PNGL (SEQ ID NO: 11) (peptide)

fold increase against SEQ ID NO: 1 [2]: 3 fold
Selectivity Index [1]: 13600
Molecule: Ac-PLHS[pT]PNGL (SEQ ID NO: 3)

IC50 [5]: 4.5 µM
Molecule: {4‑phenethoxybenzoyl}-S[pT]PNGL (also: further groups not given here, see m14; also called Compound No. 6) [Compound #6, 4-phenethoxy FLIP (R1 = OCH2CH2C6H5)]

IC50 [5]: 3 µM
Molecule: {4‑(methylthio)benzoyl}-S[pT]PNGL (also: further groups not given here, see m14; also called Compound No. 7) [Compound #7, thiomethyl FLIP (R1 = SCH3)]

IC50 [5]: 21.9 µM
Molecule: {4‑methoxybenzoyl}-S[pT]PNGL (also: further groups not given here, see m14; also called Compound No. 2) [Compound #2, methoxy derivative FLIP (R1 = OCH3)]

IC50 [5]: 15.9 µM
Molecule: {4‑ethoxybenzoyl}-S[pT]PNGL (also: further groups not given here, see m14; also called Compound No. 3) [Compound #3 FLIP (R1 = OCH2CH3)]

fold loss of binding against SEQ ID NO: 4 [2]: 24 fold
Selectivity Index [1]: > 1900
Molecule: Ac-LHS[pT]AI [Ac-LHS[pT]AI (SEQ ID NO: 5)]

Second part, the molecule before the results:

Molecule: CC(=O)N1CCC[C@H]1C(=O)N[C@@H](CC(C)C)C(=O)N[C@@H](Cc1c[nH]cn1)C(=O)N[C@@H](CO)C(=O)N[C@H](C(=O)N1CCC[C@H]1C(=O)N[C@@H](CCCCN)C(=O)N[C@@H](CC(N)=O)C(=O)NCC(=O)O)[C@@H](C)OP(=O)(O)O [SEQ ID NO: 9, Ac-PLHS[pT]PKNG] (Ac-PLHS[pT]PKNG-OH; C-terminus assumed)
Selectivity Index (PLK1 PBD): 20,906
IC50 (PLK1 PBD; [6]): 0.032 µM
IC50 (PLK3 PBD; [7]): 134 µM

Molecule: CC(=O)N1CCC[C@H]1C(=O)N[C@@H](CC(C)C)C(=O)N[C@@H](Cc1c[nH]cn1)C(=O)N[C@@H](CO)C(=O)N[C@H](C(=O)N1CCC[C@H]1C(=O)N[C@@H](CC(N)=O)C(=O)NCC(=O)N[C@@H](CC(C)C)C(=O)O)[C@@H](C)OP(=O)(O)O [SEQ ID NO: 3, Ac-PLHS[pT]PNGL] (Ac-PLHS[pT]PNGL-OH; C-terminus assumed)
Selectivity Index (PLK1 PBD): 13,633
IC50 (PLK1 PBD; [6]): 0.06 µM
IC50 (PLK3 PBD; [7]): 164 µM

Molecule: CC(C)C[C@H](NC(=O)CNC(=O)[C@H](CC(N)=O)NC(=O)[C@@H]1CCCN1C(=O)[C@@H](NC(=O)[C@H](CO)NC(=O)c1ccc(O)cc1)[C@@H](C)OP(=O)(O)O)C(=O)O [Compound 1] ({Benzoyl(4-OH)}-S[pT]PNGL-OH)
PLK1 PBD binding, in words (PLK1 PBD; FP assay): completely inactive

Molecule: CC[C@H](C)[C@H](NC(=O)[C@H](C)NC(=O)[C@@H](NC(=O)[C@H](CO)NC(=O)[C@H](Cc1c[nH]cn1)NC(=O)[C@H](CC(C)C)NC(C)=O)[C@@H](C)OP(=O)(O)O)C(=O)O [SEQ ID NO: 5, Ac-LHS[pT]Al] (Ac-LHS[pT]AI-OH; C-terminus assumed)
IC50 (PLK1 PBD): 1.57 µM
Selectivity Index (PLK1 PBD): >1900
PLK3 PBD binding, in words (PLK3 PBD): lost all detectable affinity
IC50 (PLK3 PBD; [8]): > 600 µM

Molecule: CC(C)C[C@H](NC(=O)CNC(=O)[C@H](CC(N)=O)NC(=O)[C@@H]1CCCN1C(=O)[C@@H](NC(=O)[C@H](CO)NC(=O)[C@H](CS)NC(=O)[C@H](CC(C)C)NC(=O)[C@@H](N)CC(C)C)[C@@H](C)O)C(=O)O [SEQ ID NO: 2, reference compound] (H-LLCSTPNGL-OH)
IC50 (PLK1 PBD): > 600 µM

Molecule: CCCCCCCCc1ccc(C(=O)N[C@@H](CO)C(=O)N[C@H](C(=O)N2CCC[C@H]2C(=O)N[C@@H](CC(N)=O)C(=O)NCC(=O)N[C@@H](CC(C)C)C(=O)O)[C@@H](C)OP(=O)(O)O)cc1 [Compound 13] ({Benzoyl(4-octyl)}-S[pT]PNGL-OH; C-terminus assumed)
IC50 (PLK3 PBD; [8]): 149 ± 38.2 µM

Molecule: CC(C)C[C@H](NC(=O)[C@@H]1CCCN1C(=O)CN)C(=O)N[C@@H](C)C(=O)N[C@H](C(=O)N[C@@H](CO)C(=O)N[C@H](C(=O)N1CCC[C@H]1C(=O)N[C@@H](CCCCN)C(=O)N[C@@H](CC(N)=O)C(=O)NCC(=O)O)[C@@H](C)OP(=O)(O)O)[C@@H](C)O [SEQ ID NO: 7, GPLATS[pT]PKNG, reference compound] (H-GPLATS[pT]PKNG-OH; N-terminus and C-terminus assumed)
IC50 (PLK1 PBD): 0.0057 µM
Selectivity Index (PLK1 PBD): ~2000 and 1928
IC50 (PLK3 PBD; [8]): 2.2 µM

Molecule: CC(C)C[C@H](NC(=O)CNC(=O)[C@H](CC(N)=O)NC(=O)[C@@H]1CCCN1C(=O)[C@@H](NC(=O)[C@H](CO)NC(=O)[C@@H](NC(=O)[C@H](C)NC(=O)[C@H](CC(C)C)NC(=O)[C@@H]1CCCN1C(=O)CN)[C@@H](C)O)[C@@H](C)OP(=O)(O)O)C(=O)O [SEQ ID NO: 8, GPLATS[pT]PNGL] (H-GPLATS[pT]PNGL-OH; N-terminus and C-terminus assumed)
IC50 (PLK1 PBD): 0.011 µM
fold reduction of PLK1 PBD binding relative to parent compound (PLK1 PBD): 2 fold
Selectivity Index (PLK1 PBD): 2864
fold reduction of PLK3 PBD binding relative to parent compound (PLK3 PBD): 3 fold
IC50 (PLK3 PBD; [8]): 6.3 µM

Molecule: CC(C)C[C@H](NC(=O)CNC(=O)[C@H](CC(N)=O)NC(=O)[C@@H]1CCCN1C(=O)[C@@H](NC(=O)[C@H](CO)NC(=O)[C@H](CS)NC(=O)[C@H](CC(C)C)NC(=O)[C@@H](N)CC(C)C)[C@@H](C)OP(=O)(O)O)C(=O)O [SEQ ID NO: 1, LLCS[pT]PNGL, reference compound] (H-LLCS[pT]PNGL-OH; N-terminus and C-terminus assumed)
PLK3 PBD binding, in words (PLK3 PBD): no PLK3 PBD binding apparent at the maximum concentration tested

Molecule: CCCCCCCCc1ccc(C(=O)N[C@@H](CO)C(=O)N[C@H](C(=O)N[C@@H](C)C(=O)O)[C@@H](C)OP(=O)(O)O)cc1 [Compound 14]
fold reduction of PLK1 PBD binding relative to parent compound (PLK1 PBD): ~40 fold
Selectivity Index (PLK1 PBD): 66
IC50 (PLK3 PBD; [7]): 202 ± 51.3 µM

Molecule: CC(C)C[C@H](NC(=O)CNC(=O)[C@H](CC(N)=O)NC(=O)[C@@H]1CCCN1C(=O)[C@@H](NC(=O)[C@H](CO)NC(=O)c1ccc(OCc2ccc(F)cc2)cc1)[C@@H](C)OP(=O)(O)O)C(=O)O [Compound 5] (X2-S[pT]PNGL-OH; C-terminus assumed)
IC50 (PLK1 PBD): 5 µM
fold reduction of PLK1 PBD binding relative to parent compound (PLK1 PBD): ~24 fold

Molecule: Compound No. 14, 4-octyl S[pT]A (SEQ ID NO: 12) (peptide)
Selectivity Index [4]: 66
fold weaker affinity against Compound No. 15 [2]: 40 fold
IC50 [3]: 15.2 µM

Molecule: CC[C@H](C)[C@H](NC(=O)[C@H](C)NC(=O)[C@@H](NC(=O)[C@H](CO)NC(=O)[C@H](Cc1c[nH]cn1)NC(=O)[C@H](CC(C)C)NC(=O)[C@@H]1CCCN1C(C)=O)[C@@H](C)OP(=O)(O)O)C(=O)O [SEQ ID NO: 4, Ac-PLHS[pT]Al] (Ac-PLHS[pT]AI-OH; C-terminus assumed)
Selectivity Index (PLK1 PBD): 21,133
IC50 (PLK1 PBD; [6]): 0.064 µM
IC50 (PLK3 PBD; [7]): 270 µM

Reference: patent publication US20190269784A1, “Selective Inhibitors of the Polo-Like Kinase 1 Polo-Box Domain” (UNIVERSITY OF SOUTH CAROLINA, priority 2018, published 2019)
